Assay type in all cases: in vivo
For one experiment, the system named is Zymoseptoria tritici. Put plainly: Fungicidal activity: leaf blotch of wheat (SEPTTR), percent disease control on wheat seedlings. As to conditions: Zymoseptoria tritici, LV (low volume) activity at 121.5 g/H. How it is done:
Technical grades of materials were dissolved in acetone, which were then mixed with nine volumes of water containing 110 ppm Triton X-100. The fungicide solutions were applied onto wheat seedlings using an automated booth sprayer to run-off. All sprayed plants were allowed to air dry prior to further handling. All fungicides were evaluated using the aforementioned method for their activity vs. all target diseases, unless stated otherwise. Wheat leaf blotch and brown rust activity were also evaluated using track spray applications, in which case the fungicides were formulated as EC formulations, containing 0.1% Trycol 5941 in the spray solutions. Wheat plants (variety Yuma) were grown from seed in a greenhouse in 50% mineral soil/50% soil-less Metro mix until the first leaf was fully emerged, with 7-10 seedlings per pot. These plants were inoculated with an aqueous spore suspension of Zymoseptoria tritici either prior to or after fungicide treatments. After inoculation the plants were kept in 100% relative humidity (one day in a dark dew chamber followed by two to three days in a lighted dew chamber at 20° C.) to permit spores to germinate and infect the leaf. The plants were then transferred to a greenhouse set at 20° C. for disease to develop. When disease symptoms were fully expressed on the 1st leaves of untreated plants, infection levels were assessed on a scale of 0 to 100 percent disease severity. Percent disease control was calculated using the ratio of disease severity on treated plants relative to untreated plants.

Another experiment deals with Puccinia triticina. Nature of the experiment: Fungicidal activity: wheat brown rust (PUCCRT), percent disease control on wheat seedlings. To be noted: Puccinia triticina, LV (low volume) activity at 121.5 g/H. How it is done:
Technical grades of materials were dissolved in acetone, which were then mixed with nine volumes of water containing 110 ppm Triton X-100. The fungicide solutions were applied onto wheat seedlings using an automated booth sprayer to run-off. All sprayed plants were allowed to air dry prior to further handling. All fungicides were evaluated using the aforementioned method for their activity vs. all target diseases, unless stated otherwise. Wheat leaf blotch and brown rust activity were also evaluated using track spray applications, in which case the fungicides were formulated as EC formulations, containing 0.1% Trycol 5941 in the spray solutions. Wheat plants (variety Yuma) were grown from seed in a greenhouse in 50% mineral soil/50% soil-less Metro mix until the first leaf was fully emerged, with 7-10 seedlings per pot. These plants were inoculated with an aqueous spore suspension of Puccinia triticina either prior to or after fungicide treatments. After inoculation the plants were kept in a dark dew room at 22° C. with 100% relative humidity overnight to permit spores to germinate and infect the leaf. The plants were then transferred to a greenhouse set at 24° C. for disease to develop. Fungicide formulation, application and disease assessment followed the procedures as described in the Example A. Results of the evaluations are shown below in Table 4.

The subject of the next experiment is Phakopsora pachyrhizi. Put plainly: Fungicidal activity: Asian soybean rust (PHAKPA), disease control on soybean seedlings. As to conditions: High volume at 25 ppm. The procedure: Technical grades of materials were dissolved in acetone, which were then mixed with nine volumes of water containing 0.011% Tween 20. The fungicide solutions were applied onto soybean seedlings using an automated booth sprayer to run-off. All sprayed plants were allowed to air dry prior to further handling.
Soybean plants (variety Williams 82) were grown in soil-less Metro mix, with one plant per pot. Two weeks old seedlings were used for testing. Plants were inoculated either 3 days prior to or 1 day after fungicide treatments. Plants were incubated for 24 h in a dark dew room at 22° C. and 100% relative humidity then transferred to a growth room at 23° C. for disease to develop. Disease severity was assessed on the sprayed leaves.

The mark [1] stands for this setting: 24 h, 1 Day Protectant, read-out: SEPTTR 1DP disease control rating.
The mark [2] stands for this setting: 72 h, 3 Day Curative, read-out: SEPTTR 3DC disease control rating.
Where [3] appears, read: 24 h, 1 Day Protectant, read-out: PUCCRT 1DP disease control rating.
The mark [4] stands for this setting: 72 h, 3 Day Curative, read-out: PUCCRT 3DC disease control rating.
[5] abbreviates: 24 h, 1 Day Protectant, read-out: PHAKPA 1DP disease control rating.
Setting [6] is: 72 h, 3 Day Curative, read-out: PHAKPA 3DC disease control rating.

Where two headings read alike, the source gives them in different places.

Consider `COc1ccnc(C(=O)N[C@@H](C)C(=O)O[C@@H](C)[C@@H](c2ccccc2)[S+]([O-])c2ccc(F)cc2)c1OC(C)=O` (some centres unmarked) [Compound 62], for which the pest or weed control at 121.5 g/ha is not above 80% in the experiment on Zymoseptoria tritici (setting [1]), not above 80% in the experiment on Zymoseptoria tritici (setting [2]), not above 0% with Puccinia triticina (setting [3]) and not above 0% in the experiment on Puccinia triticina (setting [4]). Besides, the pest or weed control at 25 ppm in the experiment with Phakopsora pachyrhizi (setting [5]) and in the experiment on Phakopsora pachyrhizi (setting [6]) was not above 0% in each case.

Turning to `COc1ccnc(C(=O)N[C@@H](C)C(=O)O[C@@H](C)[C@@H](c2ccccc2)S(=O)(=O)c2ccc(F)cc2)c1OC(C)=O` [Compound 64], the pest or weed control at 121.5 g/ha was not above 80% in the experiment with Zymoseptoria tritici (setting [1]), not above 80% with Zymoseptoria tritici (setting [2]), not above 80% with Puccinia triticina (setting [3]) and not above 0% with Puccinia triticina (setting [4]). The pest or weed control at 25 ppm in the experiment on Phakopsora pachyrhizi (setting [5]) was not above 0%; with Phakopsora pachyrhizi (setting [6]), not above 80%.

As to `COc1ccnc(C(=O)N[C@@H](C)C(=O)O[C@@H](C)[C@H](Sc2cccc(Cl)c2)c2ccccc2)c1OC(C)=O` [Compound 65], the pest or weed control at 121.5 g/ha is more than 80% in the experiment on Zymoseptoria tritici (setting [1]), not above 0% in the experiment on Zymoseptoria tritici (setting [2]), more than 80% in the experiment with Puccinia triticina (setting [3]) and not above 80% in the experiment on Puccinia triticina (setting [4]). Also, the pest or weed control at 25 ppm with Phakopsora pachyrhizi (setting [5]) and in the experiment on Phakopsora pachyrhizi (setting [6]) was not above 80% throughout.

With `COc1ccnc(C(=O)N[C@@H](C)C(=O)O[C@@H](C)[C@H](Sc2ccc(C)cc2)c2ccccc2)c1OC(C)=O` [Compound 66], the pest or weed control at 121.5 g/ha in the experiment with Zymoseptoria tritici (setting [1]) is more than 80%; in the experiment on Zymoseptoria tritici (setting [2]), not above 80%; in the experiment with Puccinia triticina (setting [3]) it was not above 80%; with Puccinia triticina (setting [4]), not above 80%. Moreover, the pest or weed control at 25 ppm in the experiment with Phakopsora pachyrhizi (setting [5]) and in the experiment on Phakopsora pachyrhizi (setting [6]) was not above 80% each time.

As to `COc1ccnc(C(=O)N[C@@H](C)C(=O)O[C@@H](C)[C@H](Sc2ccc(C)cc2C)c2ccccc2)c1OC(C)=O` [Compound 67], the pest or weed control at 121.5 g/ha with Zymoseptoria tritici (setting [1]) is more than 80%; in the experiment on Zymoseptoria tritici (setting [2]), more than 80%; in the experiment with Puccinia triticina (setting [3]), more than 80%; in the experiment with Puccinia triticina (setting [4]), not above 80%. Also, the pest or weed control at 25 ppm in the experiment on Phakopsora pachyrhizi (setting [5]) was not above 80%; in the experiment with Phakopsora pachyrhizi (setting [6]), not above 0%.

Take `COc1ccnc(C(=O)N[C@@H](C)C(=O)O[C@@H](C)[C@@H](c2ccccc2)S(=O)(=O)Cc2ccccc2)c1OC(C)=O` [Compound 72]: the pest or weed control at 121.5 g/ha is not above 80% with Zymoseptoria tritici (setting [1]), not above 0% in the experiment on Zymoseptoria tritici (setting [2]), not above 0% with Puccinia triticina (setting [3]) and not above 0% in the experiment with Puccinia triticina (setting [4]).

Consider `COc1ccnc(C(=O)N[C@@H](C)C(=O)O[C@@H](C)[C@@H](c2ccccc2)[S+]([O-])c2ccc(C)cc2C)c1OC(C)=O` (some centres unmarked) [Compound 73], for which the pest or weed control at 121.5 g/ha in the experiment on Zymoseptoria tritici (setting [1]) is not above 80%; in the experiment on Zymoseptoria tritici (setting [2]), not above 0%; in the experiment with Puccinia triticina (setting [3]), not above 0%; in the experiment on Puccinia triticina (setting [4]), not above 0%.

`COc1ccnc(C(=O)N[C@@H](C)C(=O)O[C@@H](C)[C@@H](c2ccccc2)[S+]([O-])Cc2ccccc2)c1OC(C)=O` (some centres unmarked) [Compound 74]: the pest or weed control at 121.5 g/ha in the experiment on Zymoseptoria tritici (setting [1]), in the experiment on Zymoseptoria tritici (setting [2]), in the experiment with Puccinia triticina (setting [3]) and in the experiment with Puccinia triticina (setting [4]) was not above 0% in each case.

With `COc1ccnc(C(=O)N[C@@H](C)C(=O)O[C@@H](C)[C@H](Sc2ccc(F)cc2)c2ccc(F)cc2C)c1OC(C)=O` [Compound 75], the pest or weed control at 121.5 g/ha with Zymoseptoria tritici (setting [1]) is more than 80%; in the experiment with Zymoseptoria tritici (setting [2]), more than 80%; in the experiment with Puccinia triticina (setting [3]) it was not above 80%; in the experiment on Puccinia triticina (setting [4]) it was not above 0%.

For `COc1ccnc(C(=S)N[C@@H](C)C(=O)O[C@@H](C)[C@H](Sc2ccc(F)cc2C)c2ccccc2)c1OC(C)=O` [Compound 83], the pest or weed control at 121.5 g/ha in the experiment with Zymoseptoria tritici (setting [1]) is not above 80%; with Zymoseptoria tritici (setting [2]) it was not above 0%; in the experiment on Puccinia triticina (setting [3]), not above 80%; in the experiment on Puccinia triticina (setting [4]), not above 0%.

(Values after patent US10173982B2, “Picolinamides as fungicides” (Dow AgroSciences LLC, priority 2016, dated 2019).)
